Measurements from ChEMBL document CHEMBL1201862, “PubChem BioAssay data set” (2004).
One block for each compound: values may come before it. Activity calls are given as the source filed them.

What was measured:
HEK293 [1] = assay: membrane integrity loss in HEK cells – cell-based, fluorescence, cytotoxicity control for IDE activator project, dose response (AID 588440); type: functional; conditions: Homo sapiens;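 note: cytotoxicity by LDH release measuring loss of membrane integrity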
Insulin-degrading enzyme [2] = target: T1, Insulin-degrading enzyme (Homo sapiens, UniProt P14735); assay: recombinant IDE activation, cell-free – biochemical, fluorescence polarization, counter-screen for IDE activator project, dose response (AID 588681)
T1 sequence (P14735 whole entry): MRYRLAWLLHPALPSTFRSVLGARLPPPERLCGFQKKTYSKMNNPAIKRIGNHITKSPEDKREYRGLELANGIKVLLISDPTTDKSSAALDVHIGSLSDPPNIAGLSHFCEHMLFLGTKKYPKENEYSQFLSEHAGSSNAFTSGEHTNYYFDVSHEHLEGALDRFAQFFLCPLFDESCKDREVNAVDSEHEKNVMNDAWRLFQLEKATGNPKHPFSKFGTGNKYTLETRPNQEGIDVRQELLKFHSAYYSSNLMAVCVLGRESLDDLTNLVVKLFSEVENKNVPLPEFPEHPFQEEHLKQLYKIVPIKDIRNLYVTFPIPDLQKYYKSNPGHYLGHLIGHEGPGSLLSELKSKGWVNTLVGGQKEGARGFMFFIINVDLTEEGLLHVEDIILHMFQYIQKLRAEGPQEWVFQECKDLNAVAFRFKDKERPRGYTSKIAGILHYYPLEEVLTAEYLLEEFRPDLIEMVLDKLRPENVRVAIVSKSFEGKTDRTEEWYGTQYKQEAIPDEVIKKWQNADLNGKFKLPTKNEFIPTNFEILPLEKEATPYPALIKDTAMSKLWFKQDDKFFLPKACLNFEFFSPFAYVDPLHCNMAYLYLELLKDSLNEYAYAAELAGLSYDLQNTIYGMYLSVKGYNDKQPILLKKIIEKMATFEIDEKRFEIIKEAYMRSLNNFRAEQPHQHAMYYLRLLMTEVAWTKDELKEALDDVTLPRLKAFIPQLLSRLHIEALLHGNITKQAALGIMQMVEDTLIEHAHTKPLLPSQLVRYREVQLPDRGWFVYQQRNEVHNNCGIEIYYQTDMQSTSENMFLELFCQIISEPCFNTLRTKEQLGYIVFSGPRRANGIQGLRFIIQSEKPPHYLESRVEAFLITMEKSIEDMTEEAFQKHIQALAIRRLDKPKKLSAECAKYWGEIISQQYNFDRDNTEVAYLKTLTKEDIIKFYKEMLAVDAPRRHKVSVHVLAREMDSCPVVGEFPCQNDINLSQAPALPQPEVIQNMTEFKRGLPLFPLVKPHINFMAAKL

HEK293 [3] = assay: optical interference in Abeta FP readout, dose response, artefact control for IDE activator project, biochemical, fluorescence polarization (AID 588442); type: functional, cell-based; conditions: Homo sapiens
Insulin-degrading enzyme [4] = target: T1, Insulin-degrading enzyme; assay: cellular IDE activation of Abeta substrate cleavage – fluorescence polarization, HEK cells, dose response (AID 588439); type: functional, cell-based
[5] = target: Rho-associated protein kinase 2 (Homo sapiens, UniProt O75116); type: functional
[6] = target: Mitogen-activated protein kinase 13 (Homo sapiens, UniProt O15264); type: functional
[7] = target: Neuropeptides B/W receptor type 1 (Homo sapiens, UniProt P48145); assay: human NPBW1 receptor blockade, IC50 – cell-based, fluorescence, dose response, set 5, late-stage follow-up (AID 588566); type: functional
[8] = target: Melanin-concentrating hormone receptor 1 (Homo sapiens, UniProt Q99705); assay: Late-stage fluorescence-based counterscreen for antagonists of the G-protein coupled receptor 7 (GPR7): cell-based dose response assay to identify antagonists of the melanin-concentrating hormone receptor 1 (MCHR1) Set 5.; type: functional
[9] = Luminescence Cell-Based Dose Retest to Confirm Inhibitors of Cancer Stem Cells. [Related pubchem assays (depositor defined):AID2717, AID2721]; type: functional; conditions: Homo sapiens
[10] = target: T2, Orexin/Hypocretin receptor type 1 (Homo sapiens, UniProt O43613); assay: Homogeneous Time Resolved Fluorescence (HTRF)-based cell-based high throughput dose response assay for antagonists of the orexin 1 receptor (OX1R; HCRTR1). [Related pubchem assays (depositor defined):AID434989, AID435008, AID463079, AID485270, AID492963, AID492964, AID492965, AID493232, AID504717, AID504718]; type: functional
[11] = target: T2, Orexin/Hypocretin receptor type 1; assay: Fluorescence-based cell-based high throughput dose response assay for antagonists of the orexin 1 receptor (OX1R; HCRTR1). [Related pubchem assays (depositor defined):AID434989, AID435008, AID463079, AID485270, AID492963, AID492964, AID492965, AID493232, AID504717, AID504718]; type: functional
Orexin receptor type 2 [12] = target: T3, Orexin receptor type 2 (Homo sapiens, UniProt O43614); assay: Counterscreen assay for antagonists of the orexin 1 receptor (OX1R; HCRTR1): Fluorescence-based cell-based dose response assay for antagonists of the orexin 2 receptor (OX2R; HCRTR2), run by assay provider.; type: functional
CHO-K1 = assay: (§1) Counterscreen for antagonists of the orexin 1 receptor (OX1R; HCRTR1): Homogeneous time resolved fluorescence (HTRF)-based cell-based dose response assay to identify antagonists of the parental CHO-K1 cell line. [Related pubchem assays (depositor defined):AID434989, AID435008, AID463079, AID485270, AID492963, AID492964, AID492965, AID493232, AID504699, AID504701]; type: functional; conditions: Cricetulus griseus
[13] = as §1, with “Fluorescence-based” for “Homogeneous time resolved fluorescence (HTRF)-based”, “cell-based high throughput” for “cell-based”, “CHO” for “CHO-K1”; type: functional
Orexin receptor type 2 [14] = target: T3, Orexin receptor type 2; assay: Counterscreen assay for antagonists of the orexin 1 receptor (OX1R; HCRTR1): Homogeneous Time Resolved Fluorescence (HTRF)-based cell-based dose response assay for antagonists of the orexin 2 receptor (OX2R; HCRTR2), run by assay provider.; type: functional
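Throughout, for AC50: cells exposed to compound for roughly 70 hours or longer before luminescence read.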

T2 sequence (O43613 whole entry): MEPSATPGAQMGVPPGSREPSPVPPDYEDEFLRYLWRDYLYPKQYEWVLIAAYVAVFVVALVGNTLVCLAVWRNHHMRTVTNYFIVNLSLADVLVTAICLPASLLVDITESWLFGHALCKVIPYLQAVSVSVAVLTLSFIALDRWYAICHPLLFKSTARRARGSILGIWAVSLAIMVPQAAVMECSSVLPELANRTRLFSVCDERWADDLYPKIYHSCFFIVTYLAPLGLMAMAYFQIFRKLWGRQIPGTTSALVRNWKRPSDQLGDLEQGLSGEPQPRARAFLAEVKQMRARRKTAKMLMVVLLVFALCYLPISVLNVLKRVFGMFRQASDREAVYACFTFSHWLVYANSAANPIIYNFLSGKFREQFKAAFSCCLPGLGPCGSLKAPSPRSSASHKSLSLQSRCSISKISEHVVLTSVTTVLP
T3 sequence (O43614 whole entry): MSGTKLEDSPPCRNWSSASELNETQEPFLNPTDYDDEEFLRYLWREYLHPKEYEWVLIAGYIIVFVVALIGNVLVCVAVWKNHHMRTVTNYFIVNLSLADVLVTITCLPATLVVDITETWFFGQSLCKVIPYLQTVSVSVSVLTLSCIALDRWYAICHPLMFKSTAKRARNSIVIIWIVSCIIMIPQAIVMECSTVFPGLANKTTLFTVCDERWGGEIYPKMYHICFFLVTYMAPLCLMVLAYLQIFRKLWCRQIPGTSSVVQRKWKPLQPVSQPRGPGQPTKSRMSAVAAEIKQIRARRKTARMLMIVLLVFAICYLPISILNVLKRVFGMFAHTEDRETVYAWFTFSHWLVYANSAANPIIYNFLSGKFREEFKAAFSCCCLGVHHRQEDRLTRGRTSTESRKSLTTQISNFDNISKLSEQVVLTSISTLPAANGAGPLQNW
Rho-associated protein kinase 2, sequence (O75116 whole entry): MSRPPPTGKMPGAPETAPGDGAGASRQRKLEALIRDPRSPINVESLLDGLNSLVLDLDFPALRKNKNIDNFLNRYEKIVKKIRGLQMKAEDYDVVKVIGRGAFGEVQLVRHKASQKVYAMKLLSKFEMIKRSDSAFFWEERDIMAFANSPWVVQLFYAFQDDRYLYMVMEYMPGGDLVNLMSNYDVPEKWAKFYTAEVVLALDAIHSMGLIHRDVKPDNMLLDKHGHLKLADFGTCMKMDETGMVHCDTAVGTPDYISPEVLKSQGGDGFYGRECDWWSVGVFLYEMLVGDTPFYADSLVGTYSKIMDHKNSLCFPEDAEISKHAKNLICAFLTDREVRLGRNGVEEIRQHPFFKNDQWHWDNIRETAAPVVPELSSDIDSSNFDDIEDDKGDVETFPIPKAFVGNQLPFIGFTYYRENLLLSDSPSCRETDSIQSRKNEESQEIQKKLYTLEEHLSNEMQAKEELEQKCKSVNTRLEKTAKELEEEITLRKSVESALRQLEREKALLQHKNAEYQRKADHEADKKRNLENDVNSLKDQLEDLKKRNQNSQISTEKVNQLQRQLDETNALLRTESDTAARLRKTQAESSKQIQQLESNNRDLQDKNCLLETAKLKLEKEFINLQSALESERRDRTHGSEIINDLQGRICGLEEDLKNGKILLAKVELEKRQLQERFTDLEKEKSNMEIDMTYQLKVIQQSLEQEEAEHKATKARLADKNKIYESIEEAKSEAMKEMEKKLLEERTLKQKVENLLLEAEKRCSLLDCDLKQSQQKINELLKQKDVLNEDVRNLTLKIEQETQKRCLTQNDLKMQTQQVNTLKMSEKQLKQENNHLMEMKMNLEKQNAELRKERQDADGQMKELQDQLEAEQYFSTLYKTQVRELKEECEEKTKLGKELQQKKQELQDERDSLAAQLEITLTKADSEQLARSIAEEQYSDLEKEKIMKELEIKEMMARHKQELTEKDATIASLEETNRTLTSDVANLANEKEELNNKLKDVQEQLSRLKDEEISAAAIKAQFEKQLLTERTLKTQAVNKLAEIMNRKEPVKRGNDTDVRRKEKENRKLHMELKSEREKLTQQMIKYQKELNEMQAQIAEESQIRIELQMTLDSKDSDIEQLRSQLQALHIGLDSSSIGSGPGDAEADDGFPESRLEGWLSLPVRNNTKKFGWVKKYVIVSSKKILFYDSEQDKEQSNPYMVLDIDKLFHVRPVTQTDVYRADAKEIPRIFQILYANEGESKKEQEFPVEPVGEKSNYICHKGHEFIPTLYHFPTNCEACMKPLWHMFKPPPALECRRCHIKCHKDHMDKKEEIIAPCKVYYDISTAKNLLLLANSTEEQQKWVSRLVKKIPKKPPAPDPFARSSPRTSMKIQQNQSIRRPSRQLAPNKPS
Mitogen-activated protein kinase 13, sequence (O15264 whole entry): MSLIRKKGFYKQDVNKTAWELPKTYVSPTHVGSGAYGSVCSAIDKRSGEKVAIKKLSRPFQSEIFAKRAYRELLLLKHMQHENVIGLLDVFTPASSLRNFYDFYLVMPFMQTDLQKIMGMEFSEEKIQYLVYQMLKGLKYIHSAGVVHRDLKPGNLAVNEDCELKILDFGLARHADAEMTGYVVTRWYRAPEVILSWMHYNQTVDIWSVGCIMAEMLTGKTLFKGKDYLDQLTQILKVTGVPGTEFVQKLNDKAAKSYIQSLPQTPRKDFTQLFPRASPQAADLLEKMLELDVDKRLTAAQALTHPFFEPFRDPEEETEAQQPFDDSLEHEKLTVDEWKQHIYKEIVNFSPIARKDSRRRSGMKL
Neuropeptides B/W receptor type 1, sequence (P48145 whole entry): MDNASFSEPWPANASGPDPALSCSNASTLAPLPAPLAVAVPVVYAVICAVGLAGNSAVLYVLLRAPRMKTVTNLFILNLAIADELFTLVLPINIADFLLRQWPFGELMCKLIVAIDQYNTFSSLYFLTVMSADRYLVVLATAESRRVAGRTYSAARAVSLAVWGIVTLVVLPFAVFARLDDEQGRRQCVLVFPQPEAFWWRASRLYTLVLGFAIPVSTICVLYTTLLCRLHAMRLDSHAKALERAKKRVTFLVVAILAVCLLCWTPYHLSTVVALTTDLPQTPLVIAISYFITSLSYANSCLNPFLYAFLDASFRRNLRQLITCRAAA
Melanin-concentrating hormone receptor 1, sequence (Q99705 whole entry): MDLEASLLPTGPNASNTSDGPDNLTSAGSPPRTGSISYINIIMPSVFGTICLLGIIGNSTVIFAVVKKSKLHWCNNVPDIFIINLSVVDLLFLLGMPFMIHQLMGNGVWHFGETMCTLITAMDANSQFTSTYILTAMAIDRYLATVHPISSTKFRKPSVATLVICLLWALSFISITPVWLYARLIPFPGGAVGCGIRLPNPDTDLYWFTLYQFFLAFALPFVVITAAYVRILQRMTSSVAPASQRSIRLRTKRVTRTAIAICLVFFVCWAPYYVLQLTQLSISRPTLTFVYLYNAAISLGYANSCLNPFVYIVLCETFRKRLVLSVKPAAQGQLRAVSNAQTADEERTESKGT

Compound: CCN(CC(=O)Nc1ccc(NC(C)=O)cc1)C(=O)c1cc(CN2C(=O)c3ccccc3C2=O)ccc1OC
IC50 (HEK293 [1]): > 89.2 µM (inactive) | EC50 (Insulin-degrading enzyme [2]): > 54.7 µM (inactive) | EC50 (HEK293 [3]): > 54.7 µM (inactive) | EC50 (Insulin-degrading enzyme [4]): > 54.7 µM (inactive)

Ki [5]: 0.0398 µM (active) | Ki [6]: > 7.94 µM (inactive)
Compound: O=C(NC(CO)Cc1ccccc1)c1ccc(-c2ccncc2)cc1 (stereo not given)

IC50 [7]: > 20 µM (inactive) | IC50 [8]: > 20 µM (inactive)
Compound: O=c1c(Oc2ccc(C(F)(F)F)cc2)c(Cl)cnn1Cc1cccc2ccccc12

Compound: C=CCn1c2ccccc2c(=O)c2cc(C#Cc3cc(OC)cc(OC)c3)ccc21
AC50 [9]: 1.94 µM (active) | IC50 [10]: 1.19 µM (active) | IC50 [11]: 7.69 µM (active) | IC50 (Orexin receptor type 2 [12]): 11 µM (inactive) | IC50 (CHO-K1): > 66.2 µM (inactive) | IC50 [13]: > 49.8 µM (inactive) | IC50 (Orexin receptor type 2 [14]): > 50 µM (inactive)
